# Test results as given in PubChem BioAssay AID1259407 (Chemical Carcinogenesis Research Information System (CCRIS), 2018).
# Active and inactive are the calls of the source. No rule for the calls is given here.
# Tested on: CCRIS mutagenicity, Ames/micronucleus/aberration tests
# Experiment: CCRIS mutagenicity studies
# [1] = Test System: AMES SALMONELLA TYPHIMURIUM, Strain/Indicator: TA98, Metabolic Activation: NONE, Method: PREINCUBATION
# [2] = Test System: AMES SALMONELLA TYPHIMURIUM, Strain/Indicator: TA1535, Metabolic Activation: NONE, Method: PREINCUBATION
# [3] = Test System: AMES SALMONELLA TYPHIMURIUM, Strain/Indicator: TA1537, Metabolic Activation: NONE, Method: PREINCUBATION
# [4] = Test System: AMES SALMONELLA TYPHIMURIUM, Strain/Indicator: TA98, Metabolic Activation: NONE, Method: STANDARD PLATE
# [5] = Test System: AMES SALMONELLA TYPHIMURIUM, Strain/Indicator: TA100, Metabolic Activation: NONE, Method: STANDARD PLATE
smiles,measurement,setting,value
O[C@H]([C@H](O)[C@@H](O)CBr)[C@H](O)CBr,mutagenic call,"Test System: AMES SALMONELLA TYPHIMURIUM, Strain/Indicator: TA98, Metabolic Activation: HAMSTER, LIVER, S-9, AROCLOR 1254 (10%), Method: PREINCUBATION",inactive; negative
same,mutagenic call,[1],inactive; negative
same,mutagenic call,"Test System: AMES SALMONELLA TYPHIMURIUM, Strain/Indicator: TA98, Metabolic Activation: RAT, LIVER, S-9, AROCLOR 1254 (10%), Method: PREINCUBATION",inactive; negative
same,mutagenic call,"Test System: AMES SALMONELLA TYPHIMURIUM, Strain/Indicator: TA100, Metabolic Activation: HAMSTER, LIVER, S-9, AROCLOR 1254 (10%), Method: PREINCUBATION",active; positive
same,mutagenic call,"Test System: AMES SALMONELLA TYPHIMURIUM, Strain/Indicator: TA100, Metabolic Activation: NONE, Method: PREINCUBATION",active; positive
same,mutagenic call,"Test System: AMES SALMONELLA TYPHIMURIUM, Strain/Indicator: TA100, Metabolic Activation: RAT, LIVER, S-9, AROCLOR 1254 (10%), Method: PREINCUBATION",active; positive
same,mutagenic call,"Test System: AMES SALMONELLA TYPHIMURIUM, Strain/Indicator: TA1535, Metabolic Activation: HAMSTER, LIVER, S-9, AROCLOR 1254 (10%), Method: PREINCUBATION",active; positive
same,mutagenic call,[2],active; positive
same,mutagenic call,"Test System: AMES SALMONELLA TYPHIMURIUM, Strain/Indicator: TA1535, Metabolic Activation: RAT, LIVER, S-9, AROCLOR 1254 (10%), Method: PREINCUBATION",active; positive
same,mutagenic call,"Test System: AMES SALMONELLA TYPHIMURIUM, Strain/Indicator: TA1537, Metabolic Activation: HAMSTER, LIVER, S-9, AROCLOR 1254 (10%), Method: PREINCUBATION",inactive; negative
same,mutagenic call,[3],inactive; negative
same,mutagenic call,"Test System: AMES SALMONELLA TYPHIMURIUM, Strain/Indicator: TA1537, Metabolic Activation: RAT, LIVER, S-9, AROCLOR 1254 (10%), Method: PREINCUBATION",inactive; negative
Nc1ccc(CC(=O)O)cc1,mutagenic call,[4],inactive; negative
same,mutagenic call,"Test System: AMES SALMONELLA TYPHIMURIUM, Strain/Indicator: TA98, Metabolic Activation: RAT, LIVER, S-9, Method: STANDARD PLATE",active; positive
O=Nc1cccc(-c2ccccc2)c1,mutagenic call,[4],active; positive
same,mutagenic call,[5],active; positive
OCc1ccc2c3c(cccc13)-c1ccccc1-2,mutagenic call,[4],inactive; negative
same,mutagenic call,[5],inactive; negative
O=C1C(Cl)=C(Cl)C(=O)c2ccccc21,mutagenic call,"Test System: AMES SALMONELLA TYPHIMURIUM, Strain/Indicator: TA97, Metabolic Activation: NONE, Method: PREINCUBATION",inactive; negative
same,mutagenic call,"Test System: AMES SALMONELLA TYPHIMURIUM, Strain/Indicator: TA97, Metabolic Activation: RAT, LIVER, S-9, PHENOBARBITAL AND 5,6-BENZOFLAVONE, Method: PREINCUBATION",active; positive
same,mutagenic call,[1],inactive; negative
same,mutagenic call,"Test System: AMES SALMONELLA TYPHIMURIUM, Strain/Indicator: TA98, Metabolic Activation: RAT LIVER S-9, PHENOBARBITAL AND BETA-NAPHTHOFLAVONE, Method: PREINCUBATION",inactive; negative
same,mutagenic call,"Test System: AMES SALMONELLA TYPHIMURIUM, Strain/Indicator: TA98, Metabolic Activation: RAT, LIVER, S-9, PHENOBARBITAL AND 5,6-BENZOFLAVONE, Method: PREINCUBATION",inactive; negative
same,mutagenic call,"Test System: AMES SALMONELLA TYPHIMURIUM, Strain/Indicator: TA100, Metabolic Activation: RAT LIVER S-9, PHENOBARBITAL AND BETA-NAPHTHOFLAVONE, Method: PREINCUBATION",inactive; negative
same,mutagenic call,"Test System: AMES SALMONELLA TYPHIMURIUM, Strain/Indicator: TA100, Metabolic Activation: RAT, LIVER, S-9, PHENOBARBITAL AND 5,6-BENZOFLAVONE, Method: PREINCUBATION",active; positive
same,mutagenic call,"Test System: AMES SALMONELLA TYPHIMURIUM, Strain/Indicator: TA102, Metabolic Activation: NONE, Method: PREINCUBATION",active; positive
same,mutagenic call,"Test System: AMES SALMONELLA TYPHIMURIUM, Strain/Indicator: TA102, Metabolic Activation: RAT, LIVER, S-9, PHENOBARBITAL AND 5,6-BENZOFLAVONE, Method: PREINCUBATION",active; positive
same,mutagenic call,"Test System: AMES SALMONELLA TYPHIMURIUM, Strain/Indicator: TA104, Metabolic Activation: NONE, Method: PREINCUBATION",active; positive
same,mutagenic call,"Test System: AMES SALMONELLA TYPHIMURIUM, Strain/Indicator: TA104, Metabolic Activation: RAT, LIVER, S-9, PHENOBARBITAL AND 5,6-BENZOFLAVONE, Method: PREINCUBATION",active; positive
same,mutagenic call,[2],inactive; negative
same,mutagenic call,"Test System: AMES SALMONELLA TYPHIMURIUM, Strain/Indicator: TA1535, Metabolic Activation: RAT LIVER S-9, PHENOBARBITAL AND BETA-NAPHTHOFLAVONE, Method: PREINCUBATION",inactive; negative
same,mutagenic call,"Test System: AMES SALMONELLA TYPHIMURIUM, Strain/Indicator: TA1535, Metabolic Activation: RAT, LIVER, S-9, PHENOBARBITAL AND 5,6-BENZOFLAVONE, Method: PREINCUBATION",inactive; negative
same,mutagenic call,[3],inactive; negative
same,mutagenic call,"Test System: AMES SALMONELLA TYPHIMURIUM, Strain/Indicator: TA1537, Metabolic Activation: RAT LIVER S-9, PHENOBARBITAL AND BETA-NAPHTHOFLAVONE, Method: PREINCUBATION",inactive; negative
same,mutagenic call,"Test System: AMES SALMONELLA TYPHIMURIUM, Strain/Indicator: TA1537, Metabolic Activation: RAT, LIVER, S-9, PHENOBARBITAL AND 5,6-BENZOFLAVONE, Method: PREINCUBATION",inactive; negative
same,mutagenic call,"Test System: AMES SALMONELLA TYPHIMURIUM, Strain/Indicator: TA1538, Metabolic Activation: NONE, Method: PREINCUBATION",inactive; negative
same,mutagenic call,"Test System: AMES SALMONELLA TYPHIMURIUM, Strain/Indicator: TA1538, Metabolic Activation: RAT LIVER S-9, PHENOBARBITAL AND BETA-NAPHTHOFLAVONE, Method: PREINCUBATION",inactive; negative
same,mutagenic call,"Test System: AMES SALMONELLA TYPHIMURIUM, Strain/Indicator: TA1538, Metabolic Activation: RAT, LIVER, S-9, PHENOBARBITAL AND 5,6-BENZOFLAVONE, Method: PREINCUBATION",inactive; negative
same,mutagenic call,"Test System: AMES SALMONELLA TYPHIMURIUM, Strain/Indicator: TA2637, Metabolic Activation: NONE, Method: PREINCUBATION",inactive; negative
same,mutagenic call,"Test System: AMES SALMONELLA TYPHIMURIUM, Strain/Indicator: TA2637, Metabolic Activation: RAT, LIVER, S-9, PHENOBARBITAL AND 5,6-BENZOFLAVONE, Method: PREINCUBATION",active; positive
same,mutagenic call,"Test System: E.COLI, Strain/Indicator: WP2UVRA, Metabolic Activation: NONE, Method: PREINCUBATION",inactive; negative
same,mutagenic call,"Test System: E.COLI, Strain/Indicator: WP2UVRA, Metabolic Activation: RAT LIVER S-9, PHENOBARBITAL AND BETA-NAPHTHOFLAVONE, Method: PREINCUBATION",inactive; negative
CC[C@@]1(O)C[C@H](O[C@H]2C[C@H](N(C)C)[C@H](O[C@H]3C[C@H](O)[C@H](O[C@H]4C[C@H](O)[C@H](O)[C@H](C)O4)[C@H](C)O3)[C@H](C)O2)c2c(cc3c(c2O)C(=O)c2c(O)ccc(O)c2C3=O)[C@H]1C(=O)OC,mutagenic call,"Test System: AMES SALMONELLA TYPHIMURIUM, Strain/Indicator: TA97, Metabolic Activation: NONE, Method: STANDARD PLATE",inactive; negative
same,mutagenic call,[4],inactive; negative
same,mutagenic call,"Test System: AMES SALMONELLA TYPHIMURIUM, Strain/Indicator: TA102, Metabolic Activation: NONE, Method: STANDARD PLATE",active; positive
same,mutagenic call,"Test System: AMES SALMONELLA TYPHIMURIUM, Strain/Indicator: TA104, Metabolic Activation: NONE, Method: STANDARD PLATE",active; positive
same,mutagenic call,"Test System: AMES SALMONELLA TYPHIMURIUM, Strain/Indicator: TA2637, Metabolic Activation: NONE, Method: STANDARD PLATE",inactive; negative
